Experimental data published in patent publication US4425352A, “Substituted phenoxyacetates of cyclic amines” (Agence Nationale de Valorisation de la Recherche, priority 1980, dated 1984).
Several values for one entry are separate records, joined by “and”; a condition that tells them apart may be missing. Equal entries are not always repeated.

Tests used:
[1] = tested on: mice; experiment: Acute toxicity (LD 50) per os and intraveinous, Litchfield and Wilcoxon method; assay type: in vivo; details: for LD 50 I.V.: intraveinous; for LD 50 P.O.: per os
Description: The toxicities were calculated according to the LITCHFIELD and WILCOXON method (J. Pharm. and Exp. Therap. 1949, 96, p. 99, 113).
The products were administered per os and per intraveinous route to mice.

[2] = tested on: fish chromatophores; experiment: Action on the fish chromatophores (time of blackening); assay type: in vivo, Phoxinus Phoxinus Linne; details: at minimum effectual concentration
Description: The physiology of fish chromatophores is dependent on hypothalamic secretions of the lower portion of the diencephalon. The psychotropic and cerebral-orientation drugs can modify the physiology of these regions [J. Thuillier et al. C.R. Soc. […] This test is known to evidence the action of the products on the diencephalon which controls distension and blackening of fish chromatophores. […] The time for the fish blackening to occur was measured. The same test was effected with Meclofexonate.

[3] = tested on: rats; experiment: Orientation test after an electroshock; assay type: in vivo
Excerpt: This test consists in causing a loss of orientation and motive disorders in rats after repetition of 4 series of electroshock [M. Herold: Acta. Int. Meet. Psycho. Drug.

[4] = tested on: mice intoxicated with aurothioglucose; experiment: Protective effect against the action of aurothioglucose (hyperphagia, stomach weight, weight gain); assay type: in vivo; design: Decrease in the stomach weight with respect to the aurothioglucose reference: unit not given here; details: for Weight increase: 15 days after beginning, aurothioglucose alone 49%; for Action against hyperphagia and weight gain of mice intoxicated with aurothioglucose: given 1/2 hour before aurothioglucose 250 mg/kg
Description: Hunger and thirst regulation is dependent on stimulating secretions from the hypothalamus. These regulator centers may be disturbed either in acquired manner in genetically obese animals, either consequently to the destruction of the involved centers by selective poisons, such as aurothioglucose.
If 250 mg/kg of aurothioglucose are injected to mice, then the cells of the hypothalamic nuclei will degenerate and cause an hyperphagia syndrome in animals which is evidenced by:
a distension of the stomach,
a considerable increase in ponderal growing.
The mice were treated with one of the products of the invention 1/2 hour before the intraperitoneal injection of aurothioglucose (250 mg/kg).

[5] = tested on: mice rendered obese by aurothioglucose; experiment: Curative action after development of obesity under the action of aurothioglucose; assay type: in vivo; details: for Decrease in weight/Aurothioglucose references: 18 days, per os; for Activity compared with Meclofenoxate at 200 mg/kg: in words
Description: Mice were rendered obese by intra-peritoneal injections of aurothioglucose (800 mg/kg).
After the development of obesity, a plateau was obtained in the weight curve. There was then selected an homogenous group of mice and treatment with PM 170 and Meclofenoxate was initiated. The results obtained were compared with a group of reference mice treated only with aurothioglucose (ATG controls).

[6] = tested on: genetically obese mice; experiment: Action on genetically obese mice; assay type: in vivo; details: for Decrease in weight: obese mice, gastric ingestion, 18 days
Description: Finally, gastric ingestion during 18 days of 200 mg/kg of PM 170 causes, in obese mice, a steady decrease in weight of 8.3%, while in the same conditions there occurs, with Meclofenoxate, a decrease in weight of 2.2%.

[7] = tested on: blood platelet clotting; experiment: Effect against blood platelet clotting (pia-mater vessels); assay type: in vivo, rabbits; details: dose not stated
Description: All the products of the invention prepared according to Examples 1 and 2 at a dose of 10 mg/kg have an effect against plaquette aggregation which was observed on the pia-mater vessels of rabbits [M. M. G. BOZEIX 7th. Int. Congress of Pharmacology, Paris, July 1978].

[8] = Diuretic action; assay type: in vivo
[9] = tested on: genetically obese mice; experiment: Action on genetically obese mice; assay type: in vivo; design: Alimentary consumption: unit not given here; details: for Weight: in g
[10] = tested on: cerebral oedema of rats; experiment: Actions on cerebral oedema caused by triethyltin chloride; assay type: in vivo; details: 50 mg per kilogram
Description: The alkylated tin compounds are toxic and cause selective oedema of the central nervous system and in particular of the brain (Works of R. KATZMAN et al. Arch. Neurol. 9, 178, 1963). The water content of the cerebral tissue is increased. Similarly, the cerebral sodium content increases, while the potassium is reduced.
100 mg per kg of Meclofenoxate are required to provide the same result.

[11] = tested on: central nervous system; experiment: Actions on the central nervous system (overall statement); assay type: in vivo; details: versus Meclofenoxate

| SMILES | LD 50 I.V. [1] [mg] | LD 50 P.O. [1] [mg] | Time of occurrence of the blackening [2] [s] | Weight increase [4] [%] | Decrease in aliment consumption/ATG references ([5]; 50 mg/kg) | Decrease in weight/Aurothioglucose references ([5]; 50 mg/kg per day) | Decrease in aliment consumption/ATG references ([5]; 100 mg/kg) [%] | Decrease in weight/Aurothioglucose references ([5]; 100 mg/kg per day) [%] | Decrease in aliment consumption/ATG references ([5]; 200 mg/kg) | Decrease in weight/Aurothioglucose references ([5]; 200 mg/kg per day) [%] | Decrease in weight ([6]; 200 mg/kg) [%] | Effect on the build up of Na+ [10] | Effect on the loss of K+ [10] | Occurrence of the oedema caused by triethyltin chloride [10] | Decrease in the stomach weight with respect to the aurothioglucose reference ([4]; 100 mg/kg P.O) | Action against hyperphagia and weight gain of mice intoxicated with aurothioglucose [4] | also measured |
| --- | --- | --- | --- | --- | --- | --- | --- | --- | --- | --- | --- | --- | --- | --- | --- | --- | --- |
| CN(C)CCOC(=O)COc1ccc(Cl)cc1 [Meclofenoxate, dimethylaminoethyl 4-chlorophenoxyacetate, reference compound] | 350 | 1750 | 90 | 45 | inactive | inactive | 26 | 10 | 23% and 22.9% | 5 | 2.2 |  |  |  |  |  | Efficacy in orientation test after electroshock ([3]; up to 200 mg/kg): absolutely inefficient; Decrease in the stomach weight with respect to the aurothioglucose reference ([4]; 250 mg/kg P.O): 2.2495; Decrease in the stomach weight with respect to the aurothioglucose reference ([4]; 300 mg/kg P.O): 1.6129; minimal effective dose ([4]; Mus musculus, stomach weight, Table IV, read-out: Dosage at which (only) active): 250 mg/kg; Times less active than PM 170 ([4]; stomach weight, versus PM 170): 12.4 times; Activity to counteract obesity caused by aurothioglucose ([4]; versus PM 170, in words): less active than PM 170; Effect against blood platelet clotting [7]: no effect against blood platelet clotting; Diuretic action ([8]; dose not stated): no effect against blood platelet clotting nor diuretic action; Alimentary consumption ([9]; treated normal females, 300 mg/kg, normal female controls 6.703 ± 0.597): 5.842 ± 0.842; Weight ([9]; treated normal females, 300 mg/kg, normal female controls 25.3 ± 0.504): 24.8 ± 0.602; Alimentary consumption ([9]; treated obese females, 300 mg/kg, obese female controls 6.347 ± 0.637): 5.542 ± 0.302; Weight ([9]; treated obese females, 300 mg/kg, obese female controls 42.5 ± 0.787): 41.2 ± 0.802 |
| CN1CCCCC1COC(=O)COc1ccc(Cl)cc1 (centres unmarked) [PM 172, N-methyl-2-hydroxymethyl-piperidine 4-chloro-phenoxyacetate] | 160 | 1500 | 60 |  |  |  |  |  |  |  |  | limit the build up of Na^+ | counteract the loss of K^+ | considerably reduce the occurrence of the oedema | 2.2727 | counteract both hyperphagia and the weight gain | Decrease in the stomach weight with respect to the aurothioglucose reference ([4]; 60 mg/kg P.O): 2.6299 |
| CN1CCCC(COC(=O)COc2ccc(Cl)cc2)C1 (centres unmarked) [PM 170, N-methyl-3-hydroxymethyl-piperidine (4-chloro-phenoxyacetate)] | 175 | 2300 | 90 | 34 | 10% | 5% | 33 | 12 | 36% | 14 | 8.3 | limit the build up of Na^+ | counteract the loss of K^+ | considerably reduce the occurrence of the oedema | 4.2287 | counteract both hyperphagia and the weight gain | Toxicity compared with Meclofenoxate / overall toxicity ([1]; in words): less toxic than "Meclofenoxate"; Efficacy in orientation test after electroshock ([3]; 100 mg, first 2 series of electroshock): slightly effective; Decrease in the stomach weight with respect to the aurothioglucose reference ([4]; 20 mg/kg P.O): 3.2155; Decrease in the stomach weight with respect to the aurothioglucose reference ([4]; 50 mg/kg P.O): 2.8729; Activity against increase of the stomach weight distension ([4]; in words): very high activity; Activity compared with Meclofenoxate at 200 mg/kg ([5]; 50 mg/kg): same activity at 50 mg/kg than Meclofenoxate at 200 mg/kg; Activity compared with Meclofenoxate at 200 mg/kg ([5]; 200 mg/kg): markedly higher than Meclofenoxate at 200 mg/kg; Activity on alimentary consumption and weight development ([6]; genetically obese mice of 42-42.5 g, in words): active both on alimentary consumption and on weight development; Weight ([6]; treated obese males, 200 mg/kg, obese male controls 43.3 ± 0.284, in g): 39.3 ± 0.882; Diuretic action ([8]; 100 mg/kg): slight diuretic action; Activity on the central nervous system relative to Meclofenoxate [11]: from five to twelve times more active than Meclofenoxate; Alimentary consumption ([9]; treated normal males, 200 mg/kg, normal male controls 6.307 ± 0.746): 4.716 ± 0.880; Weight ([9]; treated normal males, 200 mg/kg, normal male controls 25.34 ± 0.365): 22.22 ± 0.484; Alimentary consumption ([9]; treated obese males, 200 mg/kg, obese male controls 6.786 ± 0.853): 4.384 ± 0.886 |
| CCN1CCCC(OC(=O)COc2ccc(Cl)cc2)C1 (centres unmarked) [PM 168, N-ethyl-3-piperidine 4-chloro-phenoxyacetate] | 140 | 1800 | 30 |  |  |  |  |  |  |  |  | limit the build up of Na^+ | counteract the loss of K^+ | considerably reduce the occurrence of the oedema | 2.5510 | counteract both hyperphagia and the weight gain | Decrease in the stomach weight with respect to the aurothioglucose reference ([4]; 150 mg/kg P.O): 3.37 |
